Assay results taken from patent publication US12605359B2, “Proprotein convertase subtilisin/kexin type 9 (PCSK9) inhibitor and pharmaceutical use therefor” (THE KITASATO INSTITUTE, priority 2020, dated 2026).

Experiments:
PCSK9 [1] = experiment: In vitro PCSK9 inhibition test: Western blot of PCSK9/ProPCSK9 in culture medium and cells of HepG2 cells; assay type: cell-based, human; conditions: HepG2, 24 hours; for PCSK9 (in cells) / PCSK9 (in culture medium) / ProPCSK9 (in cells) / Total PCSK9 amount: percentage with respect to total amount of PCSK9 in the control; for total amount of PCSK9, dependence on the concentration added: 1.0 and 10 micro gram/mL; for total amount of PCSK9, dependence on the concentration added / amount of PCSK9 in the culture medium and the cells, as compared with the control: result in words
Protocol: HepG2 cells derived from human liver cancer (5×10^5 cells/mL, 0.25 mL/well) were seeded on a 48-well plate. Subject compounds: 1,11-O-o-methylbenzylidene-7-O-p-cyanobenzoyl-1,7,11-trideacetyl pyripyropene A (PRD125), 7-p-cyanobenzoyl-7-deacetyl pyripyropene A (PRD017), 7-O-p-cyanobenzoyl-1,11-di(O-isobutyryl)-1,7,11-trideacetyl pyripyropene A (PRD056), and comparative compounds: pyripyropene A (PPPA) and a known statin drug, atorvastatin (Atr), were each added to the wells at a predetermined concentration, and the cells were cultured in a serum-free medium at 37° C. for 24 hours. As a control, the cells were treated in wells in the absense of compound under similar conditions. After culturing, the culture medium and the cells were collected. PCSK9 in the culture medium and the cells was detected by Western blotting. Using an image analysis software (ImageLab), band intensity of the detected PCSK9 was quantified. The quantitative value of each band intensity was corrected based on the quantitative value of the band intensity of glyceraldehyde-3-phosphate dehydrogenase (GAPDH) that is a loading control for Western blotting. In the figure, FIG. 1A indicates the results of detecting PCSK9 and ProPCSK9 in the culture medium and the cells with PRD017 or PRD056 added, and FIG. 1B indicates the results of detecting PCSK9 and ProPCSK9 in the culture medium and the cells with PRD125, Atr, or PPPA added. In FIG. 2, FIG. 2A indicates the results with PRD017 added, FIG. 2B indicates the results with PRD056 added, and FIG. 2C indicates the results with PRD125 added, respectively. In FIG. 3, FIG. 3A indicates the results with Atr added, and FIG. 3B indicates the results with PPPA added, respectively. In the figures, the horizontal axis indicates the concentration of the compound (micro gram/mL) added, and the vertical axis indicates the total amount of PCSK9(%), respectively. The total amount of PCSK9 is a percentage with respect to the total amount of PCSK9 in the control. The values in Table 1 are percentages with respect to the total amount of PCSK9 in the control.

PCSK9 [2] = experiment: In-vivo PCSK9 inhibition test in high-fat-diet-fed mice; design: species or system mice (C57BL/6J); conditions: 10 mg/kg body weight/day in HFD for 8 weeks, versus control group
Protocol: Female and male mice (C57BL/6J) were fed with high-fat diet (HFD) for 4 weeks. The mice were grouped into the control group, the PPPA-administered group and PRD125-administered group (N=20 for males and N=20 for females in each group). The PPPA-administered group and the PRD125-administered group were fed with HFD with each subject compound or a comparative compound added for 8 weeks. The control group was fed only with HFD for 8 weeks. The PPPA was administered at a dose of 50 mg/kg body weight/day, and the PRD125 was administered at a dose of 10 mg/kg body weight/day, respectively. After the completion of the administration period, the blood was collected and the liver was extracted under anesthesia, from the mice of each group. The amount of LDL-cholesterol and the amount of PCSK9 in the blood, and the amount of total cholesterol, the amount of cholesteryl ester, and the amount of triglyceride in the liver were measured. The averages and the standard deviations of the measured values in each group were calculated. Further, the p values for the values of the PPPA-administered group and the PRD125-administered group with respect to the value of the control group were calculated by the student t-test. […]

Compound	PCSK9 (in cells) (PCSK9 [1]; 1.0 micro gram/mL)	PCSK9 (in culture medium) (PCSK9 [1]; 1.0 micro gram/mL)	ProPCSK9 (in cells) (PCSK9 [1]; 1.0 micro gram/mL)	Total PCSK9 amount (PCSK9 [1]; 1.0 micro gram/mL)	amount of PCSK9 in the culture medium with respect to the amount of PCSK9 in the culture medium of the control (PCSK9 [1]; 10 micro gram/mL)	amount of ProPCSK9 in the cells with respect to the amount of ProPCSK9 in the cells of the control (PCSK9 [1]; 10 micro gram/mL)	PCSK9 (in cells) (PCSK9 [1]; 10 micro gram/mL)	PCSK9 (in culture medium) (PCSK9 [1]; 10 micro gram/mL)	ProPCSK9 (in cells) (PCSK9 [1]; 10 micro gram/mL)	Total PCSK9 amount (PCSK9 [1]; 10 micro gram/mL)	total amount of PCSK9, dependence on the concentration added (PCSK9 [1])	amount of PCSK9 in the cells with respect to the amount of PCSK9 in the cells of the control (PCSK9 [1]; 10 micro gram/mL)	amount of PCSK9 in the culture medium and the cells, as compared with the control (PCSK9 [1])	amount of PCSK9 in the blood (PCSK9 [2]; HFD-fed male and female mice)	amount of triglyceride in the liver and the blood (PCSK9 [2]; HFD-fed mice)
7-O-p-cyanobenzoyl-1,11-di(O-isobutyryl)-1,7,11-trideacetyl pyripyropene A [PRD056]	27.2%	21.1%	8.1%	56.4%	30%	44.8%	34.5%	15.2%	6.4%	56.1%	decreased depending on the concentration added				
CC(C)c1c(C(=O)Nc2ccccc2)c(-c2ccccc2)c(-c2ccc(F)cc2)n1CC[C@@H](O)C[C@@H](O)CC(=O)O [Atr, atorvastatin, reference compound]	49.4%	129.3%	90.0%	268.7%	273.8%	682.5%	63.2%	136.1%	97.6%	296.8%		175.6%	rather increased		
CC(=O)OC[C@@]1(C)[C@@H]2C[C@H](OC(C)=O)[C@@]3(C)Oc4cc(-c5cccnc5)oc(=O)c4[C@H](O)[C@@H]3[C@@]2(C)CC[C@@H]1OC(C)=O [PPPA, pyripyropene A, reference compound]	35.7%	45.2%	35.7%	116.6%			38.4%	31.7%	19.7%	89.8%			no significant difference		
CC(=O)OCC1(C)[C@@H](OC(C)=O)CC[C@]2(C)[C@H]3[C@@H](O)c4c(cc(-c5cccnc5)oc4=O)O[C@]3(C)[C@@H](OC(=O)c3ccc(C#N)cc3)C[C@@H]12 (stereo partly shown) [PRD017, 7-p-cyanobenzoyl-7-deacetyl pyripyropene A]	40.3%	28.3%	11.7%	80.3%	44%	46%	29.4%	22.0%	6.6%	58%	decreased depending on the concentration added				
Cc1ccccc1[C@@H]1OCC2(C)C3C[C@H](OC(=O)c4ccc(C#N)cc4)[C@@]4(C)Oc5cc(-c6cccnc6)oc(=O)c5[C@H](O)C4[C@@]3(C)CC[C@@H]2O1 (stereo partly shown) [PRD125, 1,11-O-o-methylbenzylidene-7-O-p-cyanobenzoyl-1,7,11-trideacetyl pyripyropene A]	20.7%	23.0%	12.8%	56.5%	41.6%		23.6%	20.7%	10.4%	54.7%	decreased depending on the concentration added			significantly reduced	markedly reduced
